Results from the supplement of paper PMC4862054.

Tested on: MDA-MB-453
Test: normalised response (% of control), CellTiter-Glo; higher = more viable cells (100 = DMSO, 0 = benzethonium chloride kill control)
Conditions: incubation time: 72 h
Procedure, shortened: (§1)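 Breast cancer cell lines were exposed for 72 h in 384-well plates to compound at 5 concentrations, 10-fold apart, covering a 10,000-fold range fixed for each compound. Plates were read for CellTox Green fluorescence and CellTiter-Glo luminescence and normalised to 0.1 % DMSO (100) and a positive kill control (0). Each value is the normalised signal at one concentration of the series.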

Compound	normalised response [%]
CC[C@H](Nc1ncnc2[nH]cnc12)c1nc2cccc(F)c2c(=O)n1-c1ccccc1 [GS-1101] (10000 nM)	61.8
CC1=C(/C=C/C(C)=C/C=C/C(C)=C/C(=O)O)C(C)(C)CCC1 [Tretinoin] (10000 nM)	56.4
COc1cc([C@@H]2c3cc4c(cc3[C@@H](O[C@@H]3O[C@@H]5CO[C@@H](c6cccs6)O[C@H]5[C@H](O)[C@H]3O)[C@H]3COC(=O)[C@H]23)OCO4)cc(OC)c1O [Teniposide] (10000 nM)	64

Tested on: CAL-51
Test: as above
Conditions: incubation time: 72 h
Procedure, shortened: as §1

Compound	normalised response [%]
O=C(Cc1ccc(-c2ccc(OCCN3CCOCC3)cc2)cn1)NCc1ccccc1 [KX2-391] (10000 nM)	25.6
CC[C@@H]1C(=O)N(C)c2cnc(Nc3ccc(C(=O)NC4CCN(C)CC4)cc3OC)nc2N1C1CCCC1 [BI 2536] (1000 nM)	31.7
Nc1ccccc1NC(=O)c1ccc(CNC(=O)OCc2cccnc2)cc1 [Entinostat] (10000 nM)	31.8
Cc1cnc(NC(=O)Nc2cc(Br)c(C)cc2OC[C@@H]2CNCCO2)cn1 [Rabusertib] (1000 nM)	110
N#Cc1ccc(C(c2ccc(C#N)cc2)n2cncn2)cc1 [Letrozole] (10000 nM)	128
Nc1ncn([C@H]2C[C@H](O)[C@@H](CO)O2)c(=O)n1 [Decitabine] (10000 nM)	82.3
CC[C@H](Nc1ncnc2[nH]cnc12)c1nc2cccc(F)c2c(=O)n1-c1ccccc1 [GS-1101] (10000 nM)	120
CC1=C(/C=C/C(C)=C/C=C/C(C)=C/C(=O)O)C(C)(C)CCC1 [Tretinoin] (10000 nM)	86.2
COc1cc([C@@H]2c3cc4c(cc3[C@@H](O[C@@H]3O[C@@H]5CO[C@@H](c6cccs6)O[C@H]5[C@H](O)[C@H]3O)[C@H]3COC(=O)[C@H]23)OCO4)cc(OC)c1O [Teniposide] (10000 nM)	14

Tested on: MDA-MB-436
Test: as above
Conditions: incubation time: 72 h
Procedure, shortened: as §1

Compound	normalised response [%]
O=C(Cc1ccc(-c2ccc(OCCN3CCOCC3)cc2)cn1)NCc1ccccc1 [KX2-391] (10000 nM)	26.2
CC[C@@H]1C(=O)N(C)c2cnc(Nc3ccc(C(=O)NC4CCN(C)CC4)cc3OC)nc2N1C1CCCC1 [BI 2536] (1000 nM)	73.8
Nc1ccccc1NC(=O)c1ccc(CNC(=O)OCc2cccnc2)cc1 [Entinostat] (10000 nM)	71.6
Cc1cnc(NC(=O)Nc2cc(Br)c(C)cc2OC[C@@H]2CNCCO2)cn1 [Rabusertib] (1000 nM)	116
N#Cc1ccc(C(c2ccc(C#N)cc2)n2cncn2)cc1 [Letrozole] (10000 nM)	102
Nc1ncn([C@H]2C[C@H](O)[C@@H](CO)O2)c(=O)n1 [Decitabine] (10000 nM)	88.7
CC[C@H](Nc1ncnc2[nH]cnc12)c1nc2cccc(F)c2c(=O)n1-c1ccccc1 [GS-1101] (10000 nM)	59.8
CC1=C(/C=C/C(C)=C/C=C/C(C)=C/C(=O)O)C(C)(C)CCC1 [Tretinoin] (10000 nM)	79.2
COc1cc([C@@H]2c3cc4c(cc3[C@@H](O[C@@H]3O[C@@H]5CO[C@@H](c6cccs6)O[C@H]5[C@H](O)[C@H]3O)[C@H]3COC(=O)[C@H]23)OCO4)cc(OC)c1O [Teniposide] (10000 nM)	17.1

Tested on: CAL-120
Test: as above
Conditions: incubation time: 72 h
Procedure, shortened: as §1

Compound	normalised response [%]
O=C(Cc1ccc(-c2ccc(OCCN3CCOCC3)cc2)cn1)NCc1ccccc1 [KX2-391] (10000 nM)	60.8
CC[C@@H]1C(=O)N(C)c2cnc(Nc3ccc(C(=O)NC4CCN(C)CC4)cc3OC)nc2N1C1CCCC1 [BI 2536] (1000 nM)	52.5
Nc1ccccc1NC(=O)c1ccc(CNC(=O)OCc2cccnc2)cc1 [Entinostat] (10000 nM)	73.2
Cc1cnc(NC(=O)Nc2cc(Br)c(C)cc2OC[C@@H]2CNCCO2)cn1 [Rabusertib] (1000 nM)	102
N#Cc1ccc(C(c2ccc(C#N)cc2)n2cncn2)cc1 [Letrozole] (10000 nM)	98.8
Nc1ncn([C@H]2C[C@H](O)[C@@H](CO)O2)c(=O)n1 [Decitabine] (10000 nM)	83.9
CC[C@H](Nc1ncnc2[nH]cnc12)c1nc2cccc(F)c2c(=O)n1-c1ccccc1 [GS-1101] (10000 nM)	77.8
CC1=C(/C=C/C(C)=C/C=C/C(C)=C/C(=O)O)C(C)(C)CCC1 [Tretinoin] (10000 nM)	98.2
COc1cc([C@@H]2c3cc4c(cc3[C@@H](O[C@@H]3O[C@@H]5CO[C@@H](c6cccs6)O[C@H]5[C@H](O)[C@H]3O)[C@H]3COC(=O)[C@H]23)OCO4)cc(OC)c1O [Teniposide] (10000 nM)	23.6

Tested on: DU-4475
Test: as above
Conditions: incubation time: 72 h
Procedure, shortened: as §1

Compound	normalised response [%]
O=C(Cc1ccc(-c2ccc(OCCN3CCOCC3)cc2)cn1)NCc1ccccc1 [KX2-391] (10000 nM)	58.9
CC[C@@H]1C(=O)N(C)c2cnc(Nc3ccc(C(=O)NC4CCN(C)CC4)cc3OC)nc2N1C1CCCC1 [BI 2536] (1000 nM)	75.6
Nc1ccccc1NC(=O)c1ccc(CNC(=O)OCc2cccnc2)cc1 [Entinostat] (10000 nM)	5.86
Cc1cnc(NC(=O)Nc2cc(Br)c(C)cc2OC[C@@H]2CNCCO2)cn1 [Rabusertib] (1000 nM)	106
N#Cc1ccc(C(c2ccc(C#N)cc2)n2cncn2)cc1 [Letrozole] (10000 nM)	98.8
Nc1ncn([C@H]2C[C@H](O)[C@@H](CO)O2)c(=O)n1 [Decitabine] (10000 nM)	86.2
CC[C@H](Nc1ncnc2[nH]cnc12)c1nc2cccc(F)c2c(=O)n1-c1ccccc1 [GS-1101] (10000 nM)	96.3
CC1=C(/C=C/C(C)=C/C=C/C(C)=C/C(=O)O)C(C)(C)CCC1 [Tretinoin] (10000 nM)	89.9
COc1cc([C@@H]2c3cc4c(cc3[C@@H](O[C@@H]3O[C@@H]5CO[C@@H](c6cccs6)O[C@H]5[C@H](O)[C@H]3O)[C@H]3COC(=O)[C@H]23)OCO4)cc(OC)c1O [Teniposide] (10000 nM)	4.51

Tested on: BT-549
Test: as above
Conditions: incubation time: 72 h
Procedure, shortened: as §1

Compound	normalised response [%]
O=C(Cc1ccc(-c2ccc(OCCN3CCOCC3)cc2)cn1)NCc1ccccc1 [KX2-391] (10000 nM)	45.8
CC[C@@H]1C(=O)N(C)c2cnc(Nc3ccc(C(=O)NC4CCN(C)CC4)cc3OC)nc2N1C1CCCC1 [BI 2536] (1000 nM)	28.3
Nc1ccccc1NC(=O)c1ccc(CNC(=O)OCc2cccnc2)cc1 [Entinostat] (10000 nM)	31.6
